{"source": "paper PMC10731318", "about": "“Heterologously expressed SacP23, a novel bacteriocin from Paenibacillus polymyxa #23, is active against methicillin resistant Staphylococcus aureus” (Royal Society Open Science, 2023)", "key": {"[1]": {"test_system": "S. aureus ATCC 25923", "format": "cell-based, Staphylococcus aureus", "details": "purified SacP23, medium MHA, clear zone, 30°C 12–18 h"}, "[2]": {"test_system": "S. aureus MRSA 344/2-24", "format": "cell-based, Staphylococcus aureus"}, "[3]": {"test_system": "B. subtilis BS34A", "format": "cell-based, Bacillus subtilis"}, "[4]": {"test_system": "B. cereus ATCC 10876", "format": "cell-based, Bacillus cereus", "details": "purified SacP23, medium MHA"}, "[5]": {"test_system": "L. monocytogenes192/1-2 ACM 3173", "format": "cell-based, Listeria monocytogenes", "details": "purified SacP23; L. monocytogenes 192/1-2 ACM 3173; medium MHA"}, "[6]": {"test_system": "C. perfringens EHE-NE18", "format": "cell-based, Clostridium perfringens", "details": "purified SacP23, medium MHA"}, "[7]": {"test_system": "L. plantarum A6", "format": "cell-based, Lactobacillus plantarum", "details": "purified SacP23, medium deMan, Rogosa and Sharpe (MRS)"}, "[8]": {"test_system": "E. faecalis (VRE) 345/19", "format": "cell-based, Enterococcus faecalis", "details": "purified SacP23, medium MRS"}, "[9]": {"test_system": "S. Enteritidis ATCC 13076", "format": "cell-based, Salmonella Enteritidis", "details": "purified SacP23, medium MHA"}, "[10]": {"test_system": "E. coli ATCC 25922", "format": "cell-based", "details": "purified SacP23, medium MHA"}, "[11]": {"test_system": "C. jejuni ATCC 81116", "format": "cell-based, Campylobacter jejuni", "details": "purified SacP23, medium MHA + 5% sheep blood"}, "[12]": {"test_system": "pronase E", "details": "pronase E 1 mg ml^−1, 1 h; spot-on-lawn versus untreated sample"}, "[13]": {"biological_target": "proteinase K (Parengyodontium album, UniProt P06873)", "sequence (P06873 106-384)": "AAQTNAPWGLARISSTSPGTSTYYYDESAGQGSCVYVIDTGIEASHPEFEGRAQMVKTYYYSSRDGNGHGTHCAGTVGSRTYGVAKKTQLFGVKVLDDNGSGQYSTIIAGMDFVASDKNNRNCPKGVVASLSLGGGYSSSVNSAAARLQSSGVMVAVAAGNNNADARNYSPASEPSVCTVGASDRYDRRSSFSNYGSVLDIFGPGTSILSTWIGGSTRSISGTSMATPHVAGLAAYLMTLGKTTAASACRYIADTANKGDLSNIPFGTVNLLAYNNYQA", "details": "proteinase K 1 mg ml^−1, 1 h; spot-on-lawn versus untreated sample"}, "[14]": {"test_system": "trypsin", "details": "trypsin 1 mg ml^−1, 1 h; spot-on-lawn versus untreated sample"}, "[15]": {"test_system": "lipase", "details": "lipase 1 mg ml^−1, 1 h; spot-on-lawn versus untreated sample"}, "[16]": {"test_system": "catalase", "details": "catalase 1 mg ml^−1, 1 h; spot-on-lawn versus untreated sample"}, "[17]": {"test_system": "Pseudomonas aeruginosa and K. pneumonia", "details": "cited from earlier work"}, "[18]": {"test_system": "many Gram-negative bacteria including colistin-resistant Klebsiella pneumonia, E. coli, and Campylobacter species", "details": "cited from earlier work"}, "[19]": {"test_system": "many phytopathogens and Gram-positive bacteria", "details": "cited from earlier work"}, "[20]": {"details": "isolated from a Cyanobacteria sp.; cited from earlier work"}, "[21]": {"test_system": "Gram-negative and Gram-positive pathogens including antibiotic-resistant strains of E. coli, P. aeruginosa, Acinetobacter baumannii, K. pneumoniae, S. aureus …", "details": "cited from earlier work"}, "[22]": {"test_system": "Gram-positive and Gram-negative bacteria", "details": "cited from earlier work", "text": "Further studies need to be undertaken to fully assess the potency of the SacP23 by performing minimum inhibitory concentration tests for a range of sensitive bacteria. […] This indicates the diversity in antimicrobial spectra of sactipeptide-type ..."}}, "data": [{"substance": "MRKLVKRSTNVGDTIEAFGCGCSCYCPCSCYCAGSLTRSSNTSRESDGSYRRDNGTGIGN [SacP23]", "values": [{"measurement": "antimicrobial activity", "setting": "[1]", "result": "+"}, {"measurement": "antimicrobial activity against an MRSA isolate", "setting": "[2]; heterologously expressed recombinant SacP23, result in words", "result": "strong activity"}, {"measurement": "antimicrobial activity", "setting": "[2]; purified SacP23, S. aureus MRSA 344/2-24, medium MHA, clear zone, 30°C 12–18 h", "result": "+"}, {"measurement": "antimicrobial activity", "setting": "[3]; purified SacP23, B. subtilis BS34A, medium MHA", "result": "+"}, {"measurement": "sensitivity of the base B. subtilis expression strain", "setting": "[3]; recombinant SacP23, result in words", "result": "sensitive"}, {"measurement": "antimicrobial activity", "setting": "[4]", "result": "+"}, {"measurement": "antimicrobial activity", "setting": "[5]", "result": "−"}, {"measurement": "antimicrobial activity", "setting": "[6]", "result": "−"}, {"measurement": "antimicrobial activity", "setting": "[7]", "result": "−"}, {"measurement": "antimicrobial activity", "setting": "[8]", "result": "+"}, {"measurement": "antimicrobial activity", "setting": "[9]", "result": "−"}, {"measurement": "antimicrobial activity", "setting": "[10]", "result": "−"}, {"measurement": "antimicrobial activity", "setting": "[11]", "result": "−"}, {"measurement": "enzymatic stability: remaining antimicrobial activity after pronase E", "setting": "[12]", "result": "sensitive"}, {"measurement": "enzymatic stability: remaining antimicrobial activity after proteinase K", "setting": "[13]", "result": "sensitive"}, {"measurement": "enzymatic stability: remaining antimicrobial activity after trypsin", "setting": "[14]", "result": "sensitive"}, {"measurement": "enzymatic stability: remaining antimicrobial activity after lipase", "setting": "[15]", "result": "resistant"}, {"measurement": "enzymatic stability: remaining antimicrobial activity after catalase", "setting": "[16]", "result": "resistant"}]}, {"substance": "Polymyxin", "values": [{"measurement": "growth suppression", "setting": "[17]", "result": "suppress the growth"}]}, {"substance": "Tridecaptin", "values": [{"measurement": "activity against Gram-negative bacteria", "setting": "[18]", "result": "strong activity"}]}, {"substance": "fusaricidin B", "values": [{"measurement": "inhibitory activity", "setting": "[19]", "result": "inhibitory activity"}]}, {"substance": "landornamide A", "values": [{"measurement": "antiviral activity", "setting": "[20]", "result": "antiviral activity"}]}, {"substance": "paenibacterin", "values": [{"measurement": "antimicrobial activity", "setting": "[21]", "result": "antimicrobial activity"}]}, {"substance": "subtilosin A (cyclo(NKGCATCSIGAACLVDGPIPDFEIAGATGLFGLWG); ends not checked; also: sactipeptide thioether linkages between Cys and alpha-carbons, positions not given here; UniProt O07623 9-43, looked up)", "values": [{"measurement": "antimicrobial spectrum", "setting": "[22]", "result": "antimicrobial activity extending to both Gram-positive and Gram-negative bacteria"}]}]}
